Experimental data as given in article PMC12668289 (RSC Chemical Biology, 2025).
Where “and” joins values, the source holds several entries; their conditions need not be identical. Equal values may be shown once.

Experiments:
Fluc [1] = target: T1, Fluc (Photinus pyralis, UniProt P08659); settings: with Fluc; cited from earlier work
SLR [2] = experiment: BL emission spectra of luciferase-luciferin reactions; assay type: biochemical, Phrixothrix hirtus; settings: 100 mM HEPES pH 8.0, 25 °C
Protocol: (§1) 1.5 Bioluminescence characterizations
(§2) Reactions of luciferases, including Photinus pyralis luciferase (Fluc), Phrixothrix hirtus luciferase (SLR), Pyrearinus termitilluminans […]
(§3) mM D-LH 2 analogues, 3 mM ATP, 6 mM MgCl2, and 10 µM luciferase in 0.2 ml of 100 mM HEPES-NaOH pH 8.0. The bioluminescence (BL) emission characteristics were recorded using a microplate reader in a BL mode (Thermo Scientific, Varioskan, LUX multimode). […]
(§4) sphere-based multichannel spectrometer with a charge-coupled device (CCD) detector. […]

Eluc [3] = experiment: Steady-state kinetics of luciferase reactions (luminometer); assay type: biochemical, Pyrearinus termitilluminans; settings: for appKm: pH 8.0, 25 °C; for Relative kcat: relative to 2a compound
Protocol: as §1, §2, §3
BL of the
(§5) The reactions were initiated by mixing 25 µl of premixed solution of luciferases/D-LH 2 analogues with 125 µl of 3 mM ATP and 6 mM MgCl2 in 100 mM HEPES-NaOH (pH 8.0). The light intensity (relative light unit, RLU) during 0-300 sec was then collected to represent the overall luciferase activity which was further used for calculating kinetic parameters from the Michaelis-Menten equation. […]

Fluc [4] = target: T1, Fluc; experiment: BL emission spectra of luciferase-luciferin reactions; assay type: biochemical; settings: 100 mM HEPES pH 8.0, 25 °C
Protocol: as §1, §2, §3, §4

Fluc [5] = target: T1, Fluc; experiment: biochemical; assay type: binding; settings: ITC
[6] = Absorption and fluorescence spectra of luciferins; assay type: physicochemical; settings: 100 mM HEPES pH 8.0, 25 °C
Protocol: 2.6 Spectra of firefly luciferins
spectrophotometer (Agilent technologies, Cary 100 UV Vis, Cary Series UV-Vis Spectrophotometer).
were recorded by a microplate reader (Thermo Scientific, Varioskan, LUX multimode) in fluorescence mode. The reactions of D-LH 2 […]
Supplementary Table S5. […]
[e] ND denotes “not detectable”. […]

Pmluc-WT [7] = experiment: Steady-state kinetics of luciferase reactions (luminometer); assay type: biochemical, Pyrocoelia miyako; settings: for appKm: pH 8.0, 25 °C; for Relative kcat: relative to 2a compound
Protocol: as §1, §2, §3
BL of the
as §5

Pmluc-N230S [8] = experiment: as above; assay type: biochemical, Pyrocoelia miyako; settings: Pmluc-N230S; for appKm: pH 8.0, 25 °C; for Relative kcat: relative to 2a compound
Protocol: as §1, §2, §3
BL of the
as §5

SLR [9] = experiment: as above; assay type: biochemical, Phrixothrix hirtus; settings: for appKm: pH 8.0, 25 °C; for Relative kcat: relative to 2a compound
Protocol: as §1, §2, §3
BL of the
as §5

Fluc [10] = target: T1, Fluc; experiment: as above; assay type: biochemical; settings: for appKm: pH 8.0, 25 °C; for Relative kcat: relative to 2a compound
Protocol: as §1, §2, §3
BL of the
as §5

Fluc [11] = target: T1, Fluc; experiment: Stopped-flow luminometry, single turnover light formation and decay; assay type: biochemical; settings: Fluc single turnover, 25 °C
Protocol: 1.5 Bioluminescence characterizations […]
One syringe was filled with a solution of 50 µM Fluc, 3 mM ATP, and 6 mM
in both syringes were mixed by a stopped-flow device and measured the light emission at 25 °C in triplicate. […]
2.8 Investigation of bioluminescence kinetics using stopped-flow luminometry
reactions were investigated using a stopped-flow spectrophotometer (employing a light-off mode for detecting the luminescence). One

Pmluc-N230S [12] = experiment: BL emission spectra of luciferase-luciferin reactions; assay type: biochemical, Pyrocoelia miyako; settings: 100 mM HEPES pH 8.0, 25 °C
Pmluc-WT [13] = experiment: as above; assay type: biochemical, Pyrocoelia miyako; settings: 100 mM HEPES pH 8.0, 25 °C
Protocol: as §1, §2, §3, §4

Eluc [14] = experiment: as above; assay type: biochemical, Pyrearinus termitilluminans; settings: 100 mM HEPES pH 8.0, 25 °C
Protocol: as §1, §2, §3, §4

Fluc-ApCPP complex = Fluc-ApCPP complex (Photinus pyralis, UniProt P08659); experiment: biochemical; assay type: binding; settings: ITC
luciferases = settings: cited from earlier work
[15] = concentration range tested 0-300

T1 sequence (P08659 whole entry): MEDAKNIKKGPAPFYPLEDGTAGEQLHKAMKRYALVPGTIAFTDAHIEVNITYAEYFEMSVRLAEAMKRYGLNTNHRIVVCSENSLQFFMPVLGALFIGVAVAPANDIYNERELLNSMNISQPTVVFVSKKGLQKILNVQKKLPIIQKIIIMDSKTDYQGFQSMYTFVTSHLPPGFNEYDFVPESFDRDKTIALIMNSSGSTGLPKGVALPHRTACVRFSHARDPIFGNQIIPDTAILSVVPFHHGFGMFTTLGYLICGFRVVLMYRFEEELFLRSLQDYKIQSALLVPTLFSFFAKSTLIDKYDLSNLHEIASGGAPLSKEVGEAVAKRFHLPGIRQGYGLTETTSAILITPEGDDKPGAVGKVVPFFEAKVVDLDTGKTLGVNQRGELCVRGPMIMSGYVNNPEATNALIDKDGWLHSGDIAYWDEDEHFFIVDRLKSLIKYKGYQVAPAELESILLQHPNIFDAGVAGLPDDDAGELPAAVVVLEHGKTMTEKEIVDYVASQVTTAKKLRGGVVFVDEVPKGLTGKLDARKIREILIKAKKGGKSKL
Fluc-ApCPP complex, sequence (P08659 whole entry, one chain of several): as the sequence (P08659 whole entry) above

Compound	Bioluminescence wavelength (BLλ) (SLR [2])	appKm (Eluc [3])	Relative kcat (Eluc [3])	Bioluminescence wavelength (BLλ) (Fluc [4])	Absorption (λmax) [6]	appKm (Pmluc-WT [7])	Relative kcat (Pmluc-WT [7])	appKm (Pmluc-N230S [8])	Relative kcat (Pmluc-N230S [8])	appKm (SLR [9])	Relative kcat (SLR [9])	appKm (Fluc [10])	Relative kcat (Fluc [10])	Bioluminescence wavelength (BLλ) (Pmluc-N230S [12])	Bioluminescence wavelength (BLλ) (Pmluc-WT [13])	Bioluminescence wavelength (BLλ) (Eluc [14])	Fluorescence (λem) [6]	further results
CN(C)c1ccc(/C=C/C=C/C2=N[C@@H](C(=O)O)CS2)cc1.Cl [AkaLumine–HCl]																		Quantum yield (Fluc [1]): 4.0 ± 0.5%
COc1cc2nc(C3=N[C@@H](C(=O)O)CS3)sc2c(OC)c1O [Compound 2d, 5′,7′-dimethoxy-D-luciferin]	> 630 nm	34.7 µM	0.1	625 nm	412 nm	0.2 µM	~ 0.02	13.3 µM	0.2	5.0 µM	0.8	0.2 µM	1.3	646 nm	582 nm	596 nm		Bioluminescence wavelength (BLλ) (SLR [2]; listed as 5′,7′-dimethoxy-D-LH2): 663 nm; N site (Fluc [5]): 0.42; G (free energy of binding) (Fluc [5]; 25 °C): -6.18 kcal/mol; H (enthalpy of binding) (Fluc [5]; 25 °C): -5.24 kcal/mol; Kd (Fluc [5]; Table S9): 30.4 µM; Substrate inhibition (Pmluc-WT [7]; [15]): > 0.8 µM; Substrate inhibition (SLR [9]; [15]): > 16.6 µM; Substrate inhibition (Fluc [10]; [15]): > 0.8 µM; Observed rate constant (kobs) Light decay Faster phase (Fluc [11]): 0.50 ± 0.00 s⁻¹; Observed rate constant (kobs) Light formation (Fluc [11]): 8.13 ± 0.08 s⁻¹
Cc1cc(O)c(C)c2sc(C3=N[C@@H](C(=O)O)CS3)nc12 [Compound 2e, 4′,7′-dimethyl-D-LH2]	644 nm	19.1 µM	0.2	636 nm	330 nm	10.2 µM	1.2	6.6 µM	6.3	9.0 µM	5.5	7.1 µM	1.0	631 nm	637 nm	583 nm	560 nm and 523–560 nm	Kd (Fluc-ApCPP complex; 25 °C, preformed Fluc-ApCPP complex, read-out: Dissociation constant (Kd) Fluc-ApCPP: Luciferin): 864 ± 7 µM; N site (Fluc-ApCPP complex; Fluc-ApCCP): 0.90; G (free energy of binding) (Fluc-ApCPP complex; Fluc-ApCCP, 25 °C): -4.41 kcal/mol; H (enthalpy of binding) (Fluc-ApCPP complex; Fluc-ApCCP, 25 °C): -80.0 kcal/mol
Cc1c(O)c2ccccc2c2nc(C3=N[C@@H](C(=O)O)CS3)sc12 [Compound 2f, 7′-methylnaphthol-D-luciferin]	634 nm	24.7 µM	0.0	648 nm and > 630 nm	437 nm				~ 0.01	11.6 µM	1.1	2.7 µM	0.1			557 nm	580 nm	
infraluciferin																		Longest BL wavelength (luciferases): > 700 nm
